Test results as given in patent US9572890B2, “Oral formulations of mitochondrially-targeted antioxidants and their preparation and use” (MITOTECH SA, priority 2011, dated 2017).
One block for each molecule: values may come before it.

How the values were obtained:
[1] = Storage stability of reduced SkQ1H2 formulations (Example 9); format: physicochemical
Experimental: The sample also can be stabilized by being dissolved in any deoxygenated anhydrous and aprotic solvents.
The stability of SkQ1H2 in the prepared composition was investigated by storage at 4° C. in darkness (Table 12).
The stability of SkQ1H2 in the prepared composition was investigated by storage at 60° C. in darkness (Table 13).
The yield of SkQ1H2 was 2 g (approx 100% yield) in the form of light powder. The stability results are shown below (Table 14 and Table 15).
The stability of SkQ1H2 in the prepared composition was investigated by storage at 60° C. in darkness (Table 16).
The stability of SkQ1H2 in the compositions prepared by both methods was investigated by storage at 60° C. and 4° C. in darkness (Table 17).
The stability of SkQ1H2 in compositions prepared by Methods 3 and 4 was investigated by storage at 60° C. in darkness (Table 18).
The stability of SkQ1H2 in compositions prepared by both methods was investigated by storage at 60° C. in darkness (Table 18).
The stability of SkQ1H2 in the prepared solution was investigated by storage at RT in darkness (Table 19).
The stability of SkQ1H2 in the prepared solution was investigated by storage at 60° C. in darkness (Table 20).

[2] = Stability of MTAs in liquid solvents (degradation rate); format: physicochemical
Experimental: Liquid solvents were also tested for their ability to stabilize representative MTAs SkQ1 and SkQR1. The solvents tested were water solutions of glycerol (10% to 100%), 50% lactulose, and 1,2-propylene glycol (10% to 100%, at 60° C.). Some representative results are shown below (Table 1).

[3] = Stability in dark plastic or glass vials (light sensitivity); format: physicochemical
Text: Accordingly, one of the ways to further improve or increase stability of SkQ liquid compositions during storage and transportation is to protect it from light.

[4] = test system: human endothelial cells EA.hy926; experiment: TNF-α induced death of endothelial cells (MTT test); format: cell-based; conditions: 0.2 nM pre-incubation 4 d; TNF-α 0.25 to 50 ng/ml for 2 d
Experimental: Human endothelial cell line EA.hy926 (ATCC Collection; catalog number CRL-2922) was used as a model of vascular endothelium. This cell line is similar to primary HUVEC cell line (Edgell et al. (1983) PNAS, 80(12):3734-7; Edgell et al. (1990) In Vitro Cell Dev Biol., 26(12):1167-72) and widely used as a relevant model for inflammation studies (Riesbeck et al. (1998) Clin. Vaccine Immunol., 5:5675-682).
Accordingly, human endothelial cells EA.hy926 were pre-incubated with 0.2 nM SkQR1 or 2 nM SkQ1 solution in Dulbecco's Modified Eagle's Medium (DMEM) supplemented with 10% of fetal serum (Example 1) for 4 d. After that the cells were incubated overnight with fresh DMEM medium with 0.2% of fetal serum. The cells were incubated 2 d with TNF-α (0.25 ng/ml to 50 ng/ml) and cell death was monitored using standard MTT test (Berridge et al. (1996) Biochemica, 4:14-9). The data from this assay is shown as means±S.E. at least for 3 separate experiments.

[5] = SkQ1H2 in 55% EtOH in water, 0 h
[6] = SkQ1H2 in 55% EtOH in water, 0.5 h
[7] = SkQ1H2 in 55% EtOH in water, 1.48 h
[8] = SkQ1H2 in 55% EtOH in water, 2.8 h
[9] = SkQ1H2 in 55% EtOH in water, 3.44 h
[10] = SkQ1H2 in 55% EtOH in water, 4.37 h
[11] = SkQ1H2 in 55% EtOH in water, 23.23 h
[12] = SkQ1H2 in 55% EtOH in water, 143.45 h (~6 days)
[13] = SkQ1H2 in CH2Cl2, 143.45 h (~6 days)
[14] = SkQ1H2 powder, Storage at 60° C., day 0
[15] = SkQ1H2 powder, Storage at 60° C., day 5
[16] = SkQ1H2 powder, Storage at 60° C., day 7
[17] = SkQ1H2 powder, Storage at 60° C., day 11
[18] = SkQ1H2 powder, Storage at 60° C., day 17
[19] = SkQ1H2 powder, Storage at 60° C., day 28
[20] = SkQ1H2 powder, Storage at RT, day 0
[21] = SkQ1H2 powder, Storage at RT, day 3
[22] = SkQ1H2 powder, Storage at RT, day 5
[23] = SkQ1H2 powder, Storage at RT, day 7
[24] = SkQ1H2 powder, Storage at RT, day 11
[25] = SkQ1H2 powder, Storage at RT, day 17
[26] = SkQ1H2 powder, Storage at RT, day 28
[27] = SkQ1H2 with ascorbic acid (5 eq) and sorbite (30 wt parts), solid, time not given
[28] = SkQ1H2 with ascorbic acid (5 eq) and sorbite in 30% 1,2-propylene glycol, 60° C. in darkness, day 0
[29] = SkQ1H2 with ascorbic acid (5 eq) and sorbite in 30% 1,2-propylene glycol, 60° C. in darkness, day 3
[30] = SkQ1H2 with ascorbic acid (5 eq) and sorbite in 30% 1,2-propylene glycol, 60° C. in darkness, day 14
[31] = SkQ1H2 with ascorbic acid (5 eq) and sorbite in 30% 1,2-propylene glycol, 60° C. in darkness, day 27
[32] = SkQ1H2 with ascorbic acid (10 eq) in 55% EtOH, RT in darkness, 0 h
[33] = SkQ1H2 with ascorbic acid (10 eq) in 55% EtOH, RT in darkness, 1.5 h
[34] = SkQ1H2 with ascorbic acid (10 eq) in 55% EtOH, RT in darkness, 68 h (~3 days)
[35] = SkQ1H2 with ascorbic acid (10 eq) in 55% EtOH, RT in darkness, 118 h (~5 days)
[36] = SkQ1H2 with ascorbic acid (10 eq) in 55% EtOH, RT in darkness, 165 h (~7 days)
[37] = SkQ1H2 with sorbite (30 wt parts), solid, 60° C. in darkness, day 0
[38] = SkQ1H2 with sorbite (30 wt parts), solid, 60° C. in darkness, day 4
[39] = SkQ1H2 with sorbite (30 wt parts), solid, 60° C. in darkness, day 7
[40] = SkQ1H2 with sorbite (30 wt parts), solid, 60° C. in darkness, day 11
[41] = SkQ1H2 with sorbite (30 wt parts), solid, 60° C. in darkness, day 15
[42] = SkQ1H2 with sorbite (30 wt parts), solid, 60° C. in darkness, day 28

stability of isolated SkQ1H2 light powder ([1]; 1 month at RT or several months at 4° C. in darkness under inert atmosphere without humidity access): excellent stability
SkQ1, % [1, 5]: 2.21%
SkQ1H2, % [1, 5]: 97.79%
SkQ1, % [1, 6]: 9.21%
SkQ1H2, % [1, 6]: 90.79%
SkQ1, % [1, 7]: 14.76%
SkQ1H2, % [1, 7]: 85.24%
SkQ1, % [1, 8]: 32.57%
SkQ1H2, % [1, 8]: 67.43%
SkQ1, % [1, 9]: 47.83%
SkQ1H2, % [1, 9]: 52.17%
SkQ1, % [1, 10]: 56.57%
SkQ1H2, % [1, 10]: 43.43%
SkQ1, % [1, 11]: 82.39%
SkQ1H2, % [1, 11]: 16.55%
SkQ1, % [1, 12]: 77.23%
SkQ1H2, % [1, 12]: 9.63%
SkQ1, % ([1]; SkQ1H2 in CH2Cl2, 0 h): 2.21%
SkQ1H2, % ([1]; SkQ1H2 in CH2Cl2, 0 h): 97.79%
SkQ1, % ([1]; SkQ1H2 in CH2Cl2, 0.5 h): 4.01%
SkQ1H2, % ([1]; SkQ1H2 in CH2Cl2, 0.5 h): 95.99%
SkQ1, % ([1]; SkQ1H2 in CH2Cl2, 1.48 h): 5.68%
SkQ1H2, % ([1]; SkQ1H2 in CH2Cl2, 1.48 h): 94.32%
SkQ1, % ([1]; SkQ1H2 in CH2Cl2, 2.8 h): 6.42%
SkQ1H2, % ([1]; SkQ1H2 in CH2Cl2, 2.8 h): 93.58%
SkQ1, % ([1]; SkQ1H2 in CH2Cl2, 3.44 h): 5.57%
SkQ1H2, % ([1]; SkQ1H2 in CH2Cl2, 3.44 h): 94.43%
SkQ1, % ([1]; SkQ1H2 in CH2Cl2, 4.37 h): 7.18%
SkQ1H2, % ([1]; SkQ1H2 in CH2Cl2, 4.37 h): 92.82%
SkQ1, % ([1]; SkQ1H2 in CH2Cl2, 23.23 h): 9.30%
SkQ1H2, % ([1]; SkQ1H2 in CH2Cl2, 23.23 h): 89.61%
SkQ1, % [1, 13]: 16.53%
SkQ1H2, % [1, 13]: 82.11%
SkQ1, % [1, 14]: 0.75%
SkQ1H2, % [1, 14]: 99.2%
SkQ1, % [1, 15]: 0.55%
SkQ1H2, % [1, 15]: 99.45%
SkQ1, % [1, 16]: 0%
SkQ1H2, % [1, 16]: 100%
SkQ1, % [1, 17]: 0.19%
SkQ1H2, % [1, 17]: 99.76%
SkQ1, % [1, 18]: 1.24%
SkQ1H2, % [1, 18]: 98.61%
SkQ1, % [1, 19]: 11.04%
SkQ1H2, % [1, 19]: 88.7%
SkQ1, % [1, 20]: 1.01%
SkQ1H2, % [1, 20]: 98.99%
SkQ1, % [1, 21]: 0.66%
SkQ1H2, % [1, 21]: 99.34%
SkQ1, % [1, 22]: 0.63%
SkQ1H2, % [1, 22]: 99.37%
SkQ1, % [1, 23]: 0.71%
SkQ1H2, % [1, 23]: 99.14%
SkQ1, % [1, 24]: 0.83%
SkQ1H2, % [1, 24]: 99.12%
SkQ1, % [1, 25]: 0.28%
SkQ1H2, % [1, 25]: 99.49%
SkQ1, % [1, 26]: 0.50%
SkQ1H2, % [1, 26]: 99.45%
number of impurities with content >0.5% ([1]; SkQ1H2 with ascorbic acid (5 eq) and sorbite (30 wt parts), solid, 1 year at 4° C. in darkness): 0
number of impurities with content >0.5% ([1]; SkQ1H2 with ascorbic acid (5 eq) and sorbite (30 wt parts), solid, 20 days at 60° C. in darkness): 0
SkQ1, % [1, 27]: 1.209%
SkQH2, % [1, 27]: 97.753%
SkQ1, % [1, 28]: 0.18%
SkQH2, % [1, 28]: 99.82%
SkQ1, % [1, 29]: 1.03%
SkQH2, % [1, 29]: 98.67%
SkQ1, % [1, 30]: 28.34%
SkQH2, % [1, 30]: 69.51%
SkQ1, % [1, 31]: 51.9%
SkQH2, % [1, 31]: 3.2%
SkQ1, % [1, 32]: 0.27%
SkQ1H2, % [1, 32]: 99.73%
SkQ1, % [1, 33]: 0.93%
SkQ1H2, % [1, 33]: 99.07%
SkQ1, % [1, 34]: 0.59%
SkQ1H2, % [1, 34]: 99.05%
SkQ1, % [1, 35]: 0.31%
SkQ1H2, % [1, 35]: 99.69%
SkQ1, % [1, 36]: 0.26%
SkQ1H2, % [1, 36]: 99.74%
SkQ1, % [1, 37]: 0.61%
SkQ1H2, % [1, 37]: 99.01%
SkQ1, % [1, 38]: 8.7%
SkQ1H2, % [1, 38]: 90.8%
SkQ1, % [1, 39]: 9.4%
SkQ1H2, % [1, 39]: 90.2%
SkQ1, % [1, 40]: 10.7%
SkQ1H2, % [1, 40]: 88.8%
SkQ1, % [1, 41]: 10.4%
SkQ1H2, % [1, 41]: 89.1%
SkQ1, % [1, 42]: 5.3%
SkQ1H2, % [1, 42]: 42.9%
oxidation to SkQ1 ([1]; exposed to air or wet atmosphere or dissolved in water or any protonic solvent): quickly oxides
Compound: Cc1c(O)cc(CCCCCCCCCC[P+](c2ccccc2)(c2ccccc2)c2ccccc2)c(O)c1C [SkQ1H2]

Degradation rate, percent per day ([2]; 400 mkM in 50% Glycerol): 0.08 percent per day
Compound: COc1cc2c(cc1OC)-c1c(CC(=O)OCCCCCCCC3=CC(=O)C(C)=C(C)C3=O)c3ccc(OC)c(OC)c3c[n+]1CC2 [SkQBP1]

Degradation rate, percent per day ([2]; 100 mkM in 10% 1,2-propylene glycol, at 60° C.): 6.19 percent per day
Degradation rate, percent per day ([2]; 100 mkM in 20% 1,2-propylene glycol, at 60° C.): 0.34 percent per day
Degradation rate, percent per day ([2]; 100 mkM in 30% 1,2-propylene glycol, at 60° C.): 0.32 percent per day
Degradation rate, percent per day ([2]; 100 mkM in 40% 1,2-propylene glycol, at 60° C.): 0.06 percent per day
Degradation rate, percent per day ([2]; 100 mkM in 50% 1,2-propylene glycol, at 60° C.): <0.01 percent per day
Degradation rate, percent per day ([2]; 100 mkM in 60% 1,2-propylene glycol, at 60° C.): <0.01 percent per day
Degradation rate, percent per day ([2]; 100 mkM in 70% 1,2-propylene glycol, at 60° C.): 0.05 percent per day
Degradation rate, percent per day ([2]; 100 mkM in 80% 1,2-propylene glycol, at 60° C.): 0.23 percent per day
Degradation rate, percent per day ([2]; 100 mkM in 90% 1,2-propylene glycol, at 60° C.): 0.30 percent per day
Degradation rate, percent per day ([2]; 100 mkM in 100% 1,2-propylene glycol, at 60° C.): 0.23 percent per day
Degradation rate, percent per day ([2]; 140 mkM in 50% Glycerol): 0.7 percent per day
stability [3]: significantly increased
Compound: CC/N=c1/cc2oc3cc(NCC)c(C)cc3c(-c3ccccc3C(=O)OCCCCCCCCCCC3=CC(=O)C(C)=C(C)C3=O)c-2cc1C [SkQR1]
cell death compared to control without MTA [4]: greatly reduced
